Data on seven molecules can be found in ChEMBL document CHEMBL1201862, “PubChem BioAssay data set” (2004).

Some test systems named below: A549; COLO 205; EKVX; HCC 2998; Malme-3M; NCI-H226; NCI-H460; NCI-H522; OVCAR-3; OVCAR-4; OVCAR-8; SF-268; SF-295; SK-MEL-5; SN12C; SNB-19; SW-620; U-251; UACC-62; UO-31.
Common to all, as to test: NCI-60 cell line screen, 48 h

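Tested at 5 concentrations; 48 h exposure; 96-well plates; endpoints linearly interpolated, else capped at highest concentration. Here, GI50 denotes the concentration required for 50% inhibition of growth.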 The source made the active and inactive calls. Cut-off read from the data, not from the text of the source: active = GI50 up to about 1.1 µM and inactive = higher. Where only a bound is given, the exact number is not on record here.

For the molecule `NC(=O)SCC(=O)Nc1ccc2ncccc2c1`, the GI50 in the experiment with A549 was > 100 µM (inactive); in the experiment on COLO 205, > 100 µM (inactive); in the experiment on EKVX, > 100 µM (inactive); in the experiment on HCC 2998, > 100 µM (inactive); in the experiment on Malme-3M, 56.1 µM (inactive); in the experiment with NCI-H226 it was > 100 µM (inactive). Moreover, the GI50 is 85.3 µM (inactive) in the experiment on NCI-H460; 27.7 µM (inactive) in the experiment with NCI-H522; 35.5 µM (inactive) in the experiment on OVCAR-3; > 100 µM (inactive) in the experiment with OVCAR-4; > 100 µM (inactive) in the experiment with OVCAR-8; 49.1 µM (inactive) in the experiment with SF-268. Besides, the GI50 in the experiment on SF-295 is 53.2 µM (inactive); in the experiment on SK-MEL-5 it was 43.4 µM (inactive); in the experiment with SN12C, 56 µM (inactive); with SNB-19 it was 40.6 µM (inactive); with SW-620, > 100 µM (inactive); in the experiment on U-251, 21.5 µM (inactive). In addition, the figures for the GI50 with UACC-62 and in the experiment with UO-31 were 46.2 µM (inactive) and > 100 µM (inactive), respectively.

As for `O=C(C#Cc1ccccc1)C1=Cc2ccccc2OC1`, the GI50 with A549 was 9.31 µM (inactive); in the experiment with COLO 205, 1.92 µM (inactive); in the experiment on EKVX, 2.09 µM (inactive); with HCC 2998 it was 7.38 µM (inactive); with Malme-3M it was 4.2 µM (inactive); in the experiment on NCI-H226, 2.55 µM (inactive). Besides, the GI50 in the experiment on NCI-H460 is 4.83 µM (inactive); in the experiment on NCI-H522, 1.37 µM (inactive); in the experiment with OVCAR-3 it was 2.35 µM (inactive); in the experiment on OVCAR-4, 3.34 µM (inactive); in the experiment with OVCAR-8, 2.39 µM (inactive); in the experiment with SF-268 it was 5.5 µM (inactive). Also, the GI50 was 20.7 µM (inactive) in the experiment with SF-295; 2.08 µM (inactive) in the experiment on SK-MEL-5; 3.85 µM (inactive) in the experiment with SN12C; 15 µM (inactive) in the experiment with SNB-19; 2.22 µM (inactive) in the experiment with SW-620; 3.6 µM (inactive) in the experiment on U-251. The GI50 was 1.94 µM (inactive) with UACC-62 and 2.06 µM (inactive) in the experiment with UO-31.

As to `Cc1ccc(-c2n[nH]c(=O)n2/N=C\c2ccccc2)cc1`, the GI50 in the experiment on A549 was > 88.5 µM (inactive); in the experiment with COLO 205, 74.1 µM (inactive); in the experiment with EKVX, 24.9 µM (inactive); with HCC 2998 it was > 87.3 µM (inactive); with Malme-3M, > 91.2 µM (inactive); in the experiment on NCI-H226 it was 71.4 µM (inactive). Moreover, the GI50 in the experiment with NCI-H460 was 33.6 µM (inactive); in the experiment with NCI-H522, 33.8 µM (inactive); with OVCAR-3, > 84.1 µM (inactive); with OVCAR-4, 61.5 µM (inactive); in the experiment on OVCAR-8, 53.1 µM (inactive); in the experiment on SF-268 it was 28.4 µM (inactive). Further, the GI50 with SF-295 was 28.2 µM (inactive); in the experiment with SK-MEL-5, 75.2 µM (inactive); in the experiment with SN12C, 34.5 µM (inactive); in the experiment on SNB-19 it was 46.3 µM (inactive); with SW-620, > 100 µM (inactive); with U-251 it was 29.8 µM (inactive). Besides, the results for the GI50 in the experiment with UACC-62 and with UO-31 were 46.8 µM (inactive) and > 68.7 µM (inactive), respectively.

In the case of `COCOc1cc(OC)c(Br)cc1C/C(=N/O)C(=O)OC`, the GI50 in the experiment on A549 is 91.6 µM (inactive); in the experiment on COLO 205 it was > 100 µM (inactive); in the experiment on EKVX, 49 µM (inactive); in the experiment on HCC 2998, > 100 µM (inactive); with Malme-3M it was 25.5 µM (inactive); with NCI-H226 it was > 100 µM (inactive). The GI50 is 71.9 µM (inactive) in the experiment with NCI-H460; 37.9 µM (inactive) in the experiment with NCI-H522; 43.1 µM (inactive) in the experiment on OVCAR-3; 52.5 µM (inactive) in the experiment on OVCAR-4; > 100 µM (inactive) in the experiment with OVCAR-8; 39.8 µM (inactive) with SF-268. Moreover, the GI50 was > 100 µM (inactive) with SF-295; 67.8 µM (inactive) in the experiment with SK-MEL-5; > 100 µM (inactive) in the experiment with SN12C; > 100 µM (inactive) with SNB-19; > 100 µM (inactive) with SW-620; > 100 µM (inactive) with U-251. Also, the GI50 with UACC-62 was 40.6 µM (inactive); in the experiment with UO-31, 53.7 µM (inactive).

As to `[O-][N+]1=C2CCC/C(=N/O)C2(O)C2CCCCC21N1CCOCC1` (stereo not given), the GI50 in the experiment on A549, in the experiment on COLO 205, in the experiment on EKVX, with HCC 2998, in the experiment with Malme-3M and with NCI-H226 was > 100 µM (inactive) throughout. Further, the GI50 in the experiment with NCI-H460, in the experiment with NCI-H522, in the experiment with OVCAR-3, in the experiment with OVCAR-4, in the experiment on OVCAR-8 and with SF-268 was > 100 µM (inactive) in each case. Also, the GI50 in the experiment with SF-295, with SK-MEL-5, in the experiment with SN12C, in the experiment on SNB-19, with SW-620 and with U-251 was > 100 µM (inactive) in each case. For the same molecule, the GI50 with UACC-62 and in the experiment with UO-31 was > 100 µM (inactive) each time.

Turning to `C=C1C(=O)O[C@@H]2[C@H](O)[C@@H](C)[C@@H]3C=CC(=O)[C@@]3(C)[C@H](OC(=O)C=C(C)C)[C@H]12`, the GI50 was 2.94 µM (inactive) with A549; 0.49 µM (active) with COLO 205; 1.74 µM (inactive) with EKVX; 1.79 µM (inactive) in the experiment on HCC 2998; 0.587 µM (active) in the experiment with Malme-3M; 2 µM (inactive) with NCI-H226. Moreover, the GI50 in the experiment with NCI-H460 is 2.11 µM (inactive); in the experiment with NCI-H522, 0.179 µM (active); with OVCAR-3, 0.895 µM (active); in the experiment with OVCAR-4, 1.98 µM (inactive); in the experiment on OVCAR-8, 0.421 µM (active); with SF-268, 0.916 µM (active). In addition, the GI50 is 2.8 µM (inactive) in the experiment on SF-295; 1.69 µM (inactive) in the experiment on SK-MEL-5; 0.877 µM (active) in the experiment on SN12C; 5.55 µM (inactive) in the experiment with SNB-19; 0.353 µM (active) in the experiment with SW-620; 1.49 µM (inactive) in the experiment with U-251. The values for the GI50 with UACC-62 and in the experiment with UO-31 were 0.625 µM (active) and 2.82 µM (inactive), respectively.

`COC(=O)C(=O)c1c2ccccc2n2ccc3c4ccccc4[nH]c3c12`: the GI50 in the experiment on A549 is > 10 µM (inactive); in the experiment on COLO 205 it was > 10 µM (inactive); in the experiment with EKVX, 0.406 µM (active); with HCC 2998, > 10 µM (inactive); in the experiment on Malme-3M, > 10 µM (inactive); with NCI-H226, > 10 µM (inactive). Moreover, the GI50 in the experiment with NCI-H460, in the experiment with NCI-H522, in the experiment with OVCAR-3, with OVCAR-4, with OVCAR-8 and with SF-268 was > 10 µM (inactive) each time. Besides, the GI50 in the experiment with SF-295, with SK-MEL-5, in the experiment with SN12C, in the experiment with SNB-19, in the experiment on SW-620 and in the experiment on U-251 was > 10 µM (inactive) each time. Moreover, the GI50 in the experiment on UACC-62 and with UO-31 was > 10 µM (inactive) in each case.
